Laboratory results published in ChEMBL document CHEMBL3885861, “Open TG-GATES”.

Species: Rattus norvegicus
Test: Open TG-GATES - Regimen: Daily Repeat
Format: toxicity, organism-based, Sprague-Dawley
Parameters: regimen Daily Repeat, gender Male, age 6 weeks
Settings: in vivo, po, 0 mg/kg, route gavage, dose level Control; for APTT / Bas / Eos / Fbg / Hb / Ht / Lym / MCHC / MCV / Mono / Neu / PT / Plat / RBC / Ret / WBC: tissue Blood; for KIDNEY_L / KIDNEY_R / KIDNEY_TOTAL: tissue Kidney; for LIVER: tissue Liver; for ALP / ALT / AST / CRE / DBIL / GLC / IP / K / LDH / Na / PL / RALB / TBIL / TC / TG / TP / gamma-GTP: tissue Plasma

## C#C[C@]1(O)CC[C@H]2[C@@H]3CCC4=Cc5oncc5C[C@]4(C)[C@H]3CC[C@@]21C [DANAZOL]
72 h, time 3 day
  TERMINAL_BW: 236.4 g
  APTT: 23.9 s
  Bas: 0%
  Eos: 0.8%
  Fbg: 304.4 mg/dL
  Hb: 13.4 g/dL
  Ht: 40.8%
  Lym: 77.4%
  MCHC: 32.7%
  MCV: 63.8 fL
  Mono: 3%
  Neu: 17.2%
  PT: 15.5 s
  Plat: 120.7 x10_4/uL
  RBC: 639.8 x10_4/ul
  Ret: 6.7%
  WBC: 80.8 x10_2/uL
  KIDNEY_L: 1 g
  KIDNEY_R: 1 g
  KIDNEY_TOTAL: 2 g
  LIVER: 11.6 g
  ALP: 1436.8 IU/L
  ALT: 45.8 IU/L
  AST: 72.4 IU/L
  CRE: 0.2 mg/dL
  DBIL: 0 mg/dL
  GLC: 197.6 mg/dL
  IP: 7.8 mg/dL
  K: 4.2 meq/L
  LDH: 190 IU/L
  Na: 142.6 meq/L
  PL: 140 mg/dL
  RALB: 3.1 g/dL
  TBIL: 0.008 mg/dL
  TC: 72.2 mg/dL
  TG: 95.6 mg/dL
  TP: 5.5 g/dL
  gamma-GTP: 1.6 IU/L
[…], time 7 day
  TERMINAL_BW: 266.9 g
  APTT: 22.8 s
  Bas: 0%
  Eos: 1%
  Fbg: 302.8 mg/dL
  Hb: 13.8 g/dL
  Ht: 40.8%
  Lym: 76.8%
  MCHC: 33.9%
  MCV: 60.1 fL
  Mono: 3%
  Neu: 18.8%
  PT: 15.2 s
  Plat: 116.5 x10_4/uL
  RBC: 678.8 x10_4/ul
  Ret: 5.9%
  WBC: 114.8 x10_2/uL
  KIDNEY_L: 1.1 g
  KIDNEY_R: 1.1 g
  KIDNEY_TOTAL: 2.3 g
  LIVER: 12 g
  ALP: 1763.8 IU/L
  ALT: 42 IU/L
  AST: 69.6 IU/L
  CRE: 0.2 mg/dL
  DBIL: 0 mg/dL
  GLC: 202.8 mg/dL
  IP: 7.2 mg/dL
  K: 4.4 meq/L
  LDH: 184 IU/L
  Na: 141.8 meq/L
  PL: 157 mg/dL
  RALB: 3 g/dL
  TBIL: 0.004 mg/dL
  TC: 80.4 mg/dL
  TG: 106.8 mg/dL
  TP: 5.5 g/dL
  gamma-GTP: 1.6 IU/L
[…], time 14 day
  TERMINAL_BW: 328.6 g
  APTT: 24.6 s
  Bas: 0%
  Eos: 0.8%
  Fbg: 325.6 mg/dL
  Hb: 14.5 g/dL
  Ht: 41.5%
  Lym: 83%
  MCHC: 34.9%
  MCV: 60.6 fL
  Mono: 2%
  Neu: 13.4%
  PT: 15.3 s
  Plat: 124.1 x10_4/uL
  RBC: 685.8 x10_4/ul
  Ret: 3.8%
  WBC: 122.1 x10_2/uL
  KIDNEY_L: 1.3 g
  KIDNEY_R: 1.4 g
  KIDNEY_TOTAL: 2.7 g
  LIVER: 14.6 g
  ALP: 1603.8 IU/L
  ALT: 36.8 IU/L
  AST: 65.6 IU/L
  CRE: 0.2 mg/dL
  DBIL: 0 mg/dL
  GLC: 188.2 mg/dL
  IP: 7.2 mg/dL
  K: 4.2 meq/L
  LDH: 186.6 IU/L
  Na: 142.2 meq/L
  PL: 158 mg/dL
  RALB: 3.1 g/dL
  TBIL: 0.004 mg/dL
  TC: 74.4 mg/dL
  TG: 139.8 mg/dL
  TP: 5.8 g/dL
  gamma-GTP: 3 IU/L
[…], time 28 day
  TERMINAL_BW: 402.2 g
  APTT: 23.5 s
  Bas: 0%
  Eos: 1%
  Fbg: 293 mg/dL
  Hb: 14.6 g/dL
  Ht: 42.9%
  Lym: 82.8%
  MCHC: 34.1%
  MCV: 57.9 fL
  Mono: 1.8%
  Neu: 13.6%
  PT: 15.9 s
  Plat: 101.9 x10_4/uL
  RBC: 740 x10_4/ul
  Ret: 2.1%
  WBC: 119.8 x10_2/uL
  KIDNEY_L: 1.4 g
  KIDNEY_R: 1.4 g
  KIDNEY_TOTAL: 2.8 g
  LIVER: 15.8 g
  ALP: 1301.4 IU/L
  ALT: 41.8 IU/L
  AST: 63.8 IU/L
  CRE: 0.2 mg/dL
  DBIL: 0 mg/dL
  GLC: 200.4 mg/dL
  IP: 6.4 mg/dL
  K: 4 meq/L
  LDH: 141.6 IU/L
  Na: 141.8 meq/L
  PL: 144.2 mg/dL
  RALB: 3 g/dL
  TBIL: 0 mg/dL
  TC: 71 mg/dL
  TG: 118.2 mg/dL
  TP: 5.9 g/dL
